Columns and labels:
[1] = Cytotoxicity against human HO8910 cells assessed as growth inhibition at 1 ug/ml after 24 hrs by MTT assay; format: functional; conditions: HO-8910, 24 h, read-out: GI
KB [2] = assay: Cytotoxicity against human KB cells assessed as growth inhibition at 10 ug/ml after 24 hrs by MTT assay; format: functional; conditions: read-out: GI
NCI-H460 [3] = assay: Cytotoxicity against human NCI-H460 cells assessed as growth inhibition at 1 ug/ml after 24 hrs by MTT assay; format: functional; conditions: NCI-H460, 24 h, read-out: GI
KB [4] = assay: Cytotoxicity against human KB cells assessed as growth inhibition at 0.1 ug/ml after 24 hrs by MTT assay; format: functional; conditions: read-out: GI
NCI-H460 [5] = assay: Cytotoxicity against human NCI-H460 cells assessed as growth inhibition at 10 ug/ml after 24 hrs by MTT assay; format: functional; conditions: NCI-H460, 24 h, read-out: GI
HT-29 = assay: Induction of apoptosis in human HT-29 cells; format: functional, cell-based
NCI-H460 [6] = assay: Cytotoxicity against human NCI-H460 cells assessed as growth inhibition at 0.1 ug/ml after 24 hrs by MTT assay; format: functional; conditions: NCI-H460, 24 h, read-out: GI
[7] = Cytotoxicity against human HO8910 cells assessed as growth inhibition at 100 ug/ml after 24 hrs by MTT assay; format: functional; conditions: HO-8910, 24 h, read-out: GI
Bel-7402 [8] = assay: Cytotoxicity against human Bel7402 cells assessed as growth inhibition at 10 ug/ml after 24 hrs by MTT assay; format: functional; conditions: Bel-7402, 24 h, read-out: GI
NCI-H460 [9] = assay: Cytotoxicity against human NCI-H460 cells assessed as growth inhibition at 100 ug/ml after 24 hrs by MTT assay; format: functional; conditions: NCI-H460, 24 h, read-out: GI
Bel-7402 [10] = assay: Cytotoxicity against human Bel7402 cells assessed as growth inhibition at 1 ug/ml after 24 hrs by MTT assay; format: functional; conditions: Bel-7402, 24 h, read-out: GI
KB [11] = assay: Cytotoxicity against human KB cells assessed as growth inhibition at 1 ug/ml after 24 hrs by MTT assay; format: functional; conditions: read-out: GI
Bel-7402 [12] = assay: Cytotoxicity against human Bel7402 cells assessed as growth inhibition at 100 ug/ml after 24 hrs by MTT assay; format: functional; conditions: Bel-7402, 24 h, read-out: GI
KB [13] = assay: Cytotoxicity against human KB cells assessed as growth inhibition at 100 ug/ml after 24 hrs by MTT assay; format: functional; conditions: read-out: GI
Bel-7402 [14] = assay: Cytotoxicity against human Bel7402 cells assessed as growth inhibition at 0.1 ug/ml after 24 hrs by MTT assay; format: functional; conditions: Bel-7402, 24 h, read-out: GI
DU-145 = assay: Cytotoxicity against human DU145 cells; format: functional, cell-based
CCRF S-180 [15] = assay: animal or person; conditions: Mus musculus, CCRF S-180, po, read-out: INH
Description: Antitumor activity against mouse S180 cells xenografted in ICR mouse assessed as inhibition of tumor weight at 100 mg/kg, ig administered 2 days after tumor inoculation qd for 7 days relative to control

CCRF S-180 [16] = assay: Antitumor activity against mouse S180 cells xenografted in ICR mouse assessed as reduction of tumor weight at 100 mg/kg, ig administered 2 days after tumor inoculation qd for 7 days; format: functional; conditions: route intragastric
PC-3 [17] = assay: Cytotoxicity against human PC3 cells assessed as growth inhibition at 1 ug/ml after 24 hrs by MTT assay; format: functional; conditions: PC-3, 24 h, read-out: GI
[18] = Cytotoxicity against human HO8910 cells assessed as growth inhibition at 10 ug/ml after 24 hrs by MTT assay; format: functional; conditions: HO-8910, 24 h, read-out: GI
Mus musculus [19] = assay: Acute toxicity in ICR mouse assessed as mortality at 100 mg/kg, ip qd for 4 days; format: organism-based; set-up: dose 100 mg/kg, route intraperitoneal; conditions: in vivo, 96 h
CCRF S-180 [20] = assay: Antitumor activity against mouse S180 cells xenografted in ICR mouse assessed as reduction of tumor weight at 200 mg/kg, ig administered 2 days after tumor inoculation qd for 7 days; format: functional; conditions: route intragastric
Mus musculus [21] = assay: Acute toxicity in ICR mouse assessed as mortality at 1000 mg/kg, ig; format: organism-based; set-up: dose 1000 mg/kg, route intragastric; conditions: in vivo, po
CCRF S-180 [22] = assay: Cytotoxicity against mouse S180 cells assessed as growth inhibition at 100 ug/ml after 24 hrs by MTT assay; format: functional; conditions: CCRF S-180, 24 h
PC-3 [23] = assay: Cytotoxicity against human PC3 cells assessed as growth inhibition at 100 ug/ml after 24 hrs by MTT assay; format: functional; conditions: PC-3, 24 h, read-out: GI
CCRF S-180 [24] = assay: Cytotoxicity against mouse S180 cells assessed as growth inhibition at 10 ug/ml after 24 hrs by MTT assay; format: functional; conditions: CCRF S-180, 24 h
PC-3 [25] = assay: Cytotoxicity against human PC3 cells assessed as growth inhibition at 10 ug/ml after 24 hrs by MTT assay; format: functional; conditions: PC-3, 24 h, read-out: GI
Mus musculus [26] = assay: Acute toxicity in ICR mouse assessed as mortality at 200 mg/kg, ip qd for 9 days measured on day 11; format: organism-based; set-up: dose 200 mg/kg, route intraperitoneal; conditions: in vivo, 216 h
[27] = Acute toxicity in ICR mouse; format: organism-based; conditions: in vivo
CCRF S-180 [28] = assay: Cytotoxicity against mouse S180 cells assessed as growth inhibition at 1 ug/ml after 24 hrs by MTT assay; format: functional; conditions: CCRF S-180, 24 h
CCRF S-180 [29] = assay: Antitumor activity against mouse S180 cells xenografted in ICR mouse assessed as inhibition of tumor weight at 200 mg/kg, ig administered 2 days after tumor inoculation qd for 7 days relative to control; format: functional; conditions: CCRF S-180, po, route intragastric
CCRF S-180 [30] = assay: Cytotoxicity against mouse S180 cells assessed as growth inhibition at 0.1 ug/ml after 24 hrs by MTT assay; format: functional; conditions: CCRF S-180, 24 h
Mus musculus [31] = assay: Acute toxicity in ICR mouse assessed as change in body weight at 100 mg/kg, ip qd for 4 days; format: organism-based; set-up: dose 100 mg/kg, route intraperitoneal; conditions: in vivo, 96 h
PC-3 [32] = assay: Cytotoxicity against human PC3 cells assessed as growth inhibition at 0.1 ug/ml after 24 hrs by MTT assay; format: functional; conditions: PC-3, 24 h, read-out: GI
Mus musculus [33] = assay: Acute toxicity in ICR mouse assessed as gross pathological changes at 1000 mg/kg, ig; format: organism-based; set-up: dose 1000 mg/kg, route intragastric; conditions: in vivo, po
[34] = Cytotoxicity against human HO8910 cells assessed as growth inhibition at 0.1 ug/ml after 24 hrs by MTT assay; format: functional; conditions: HO-8910, 24 h, read-out: GI
FaDu = assay: Growth inhibition of human FADU cells at 10 uM; format: functional
SMMC-7721 = assay: Induction of apoptosis in human SMMC7721 cells at 5 mM after 96 hrs; format: functional
[35] = Toxicity in rat; format: organism-based; conditions: in vivo
SCC-9 = assay: Growth inhibition of human SCC9 cells at 10 uM; format: functional
[36] = Growth inhibition of human Detroit 562 cells at 10 uM; format: functional
SCC-25 = assay: Growth inhibition of human SCC25 cells at 10 uM; format: functional

SMILES | inhibition of growth at 1 µg/mL [1] [%] | inhibition of growth at 10 µg/mL (KB [2]) [%] | inhibition of growth at 1 µg/mL (NCI-H460 [3]) [%] | inhibition of growth at 0.1 µg/mL (KB [4]) [%] | inhibition of growth at 10 µg/mL (NCI-H460 [5]) [%] | inhibition of growth at 0.1 µg/mL (NCI-H460 [6]) [%] | inhibition of growth at 100 µg/mL [7] [%] | inhibition of growth at 10 µg/mL (Bel-7402 [8]) [%] | inhibition of growth at 100 µg/mL (NCI-H460 [9]) [%] | inhibition of growth at 1 µg/mL (Bel-7402 [10]) [%] | inhibition of growth at 1 µg/mL (KB [11]) [%] | inhibition of growth at 100 µg/mL (Bel-7402 [12]) [%] | inhibition of growth at 100 µg/mL (KB [13]) [%] | IC50 (DU-145) [µM] | Activity (CCRF S-180 [16]) [g] | further results
O=C(O)CCCC[C@@H](S)CCS [DIHYDROLIPOIC ACID] | 3.93 | 3.38 | 12.2 | 12 | 5.02 | 9.25 | 1.17 | 5.59 | 7.84 | 6.98 | 8.79 | 0.59 | 16.3 |  |  | EC50 (HT-29): 250 µM; inhibition of growth at 0.1 µg/mL (Bel-7402 [14]): 10.4%
COC(=O)CCCCC(CCSC(=O)CCCSC)SC(=O)CCCSC (centres undefined) |  |  |  |  |  |  |  |  |  |  |  |  |  | 400 |  | 
CSCCCC(=O)SCCC(CCCCC(=O)OCCN(C)C)SC(=O)CCCSC (centres undefined) |  |  |  |  |  |  |  |  |  |  |  |  |  | 240 |  | 
CS/C=C/C(=O)SCCC(CCCCC(=O)OCCN(C)C)SC(=O)/C=C/SC (centres undefined) |  |  |  |  |  |  |  |  |  |  |  |  |  | 45 |  | 
O=P1(N(CCCl)CCCl)NCCCO1 (centres undefined) [CYCLOPHOSPHAMIDE ANHYDROUS] |  |  |  |  |  |  |  |  |  |  |  |  |  |  | 0.39 | inhibition in vivo at 100 mg/kg (CCRF S-180 [15]): 74.5%
O=C(CCCCC1CCSS1)Nc1ccc(Cl)cn1 (centres undefined) | 2.1 | 28.6 | 6.26 |  | 33.7 | 3.93 | 68.5 | 16.1 | 58.5 | 7.44 | 0.76 | 48.5 | 74.5 |  | 1.53 | inhibition of growth at 1 µg/mL (PC-3 [17]): 2%; inhibition of growth at 10 µg/mL [18]: 27.5%; Activity (Mus musculus [19]): Non-toxic; Activity (CCRF S-180 [20]): 1.15 g; Activity (Mus musculus [21]): Non-toxic; inhibition at 100 µg/mL (CCRF S-180 [22]): 74.3%; inhibition of growth at 100 µg/mL (PC-3 [23]): 42.3%; inhibition at 10 µg/mL (CCRF S-180 [24]): 24.5%; inhibition of growth at 10 µg/mL (PC-3 [25]): 17.1%; Activity (Mus musculus [26]): Toxic; LD50 [27]: 1000 mg/kg; inhibition at 1 µg/mL (CCRF S-180 [28]): 13%; inhibition in vivo at 200 mg/kg (CCRF S-180 [29]): 24.7%; inhibition at 0.1 µg/mL (CCRF S-180 [30]): 5.92%; Activity (Mus musculus [31]): 10%; inhibition of growth at 0.1 µg/mL (PC-3 [32]): 2.22%; Activity (Mus musculus [33]): Non-toxic
O=C(CCCCCCC(=O)Nc1ccccc1)NO [VORINOSTAT] |  |  |  |  |  |  |  |  |  |  |  |  |  |  | 1.61 | Activity (CCRF S-180 [20]): 1.53 g
O=C(CCCCC1CCSS1)Nc1ccccc1 (centres undefined) | 10.9 | 10.2 | 5.86 | 10.9 | 0.75 | 9.48 | 57.8 | 2.27 | 47.6 | 3.28 | 6.06 | 60.6 | 65.3 |  |  | inhibition of growth at 1 µg/mL (PC-3 [17]): 13.6%; inhibition of growth at 10 µg/mL [18]: 4.71%; inhibition of growth at 100 µg/mL (PC-3 [23]): 59.2%; inhibition of growth at 10 µg/mL (PC-3 [25]): 13%; inhibition of growth at 0.1 µg/mL [34]: 11.2%; inhibition of growth at 0.1 µg/mL (PC-3 [32]): 5.5%; inhibition of growth at 0.1 µg/mL (Bel-7402 [14]): 3.22%
CS/C=C\C(=O)SCCC(CCCCC(=O)OCCN(C)C)SC(=O)/C=C\SC (centres undefined) |  |  |  |  |  |  |  |  |  |  |  |  |  | 50 |  | 
O=C(O)CCCCC1CCSS1 (stereo not drawn) [LIPOIC ACID, ALPHA] | 1.05 | 7.18 | 4.65 | 0.14 | 2.39 | 8.71 | 5.11 | 4.77 | 5.72 | 2.52 | 8.6 | 8.17 | 11 |  |  | inhibition at 10 µM (FaDu): 50%; EC50 (HT-29): 250 µM; Activity (SMMC-7721): 65%; LD50 [35]: 2000 mg/kg; inhibition at 10 µM (SCC-9): 50%; inhibition of growth at 0.1 µg/mL [34]: 3.39%; inhibition at 10 µM [36]: 50%; inhibition at 10 µM (SCC-25): 50%

Reference: ChEMBL document CHEMBL1157124, “Synthesis and anticancer evaluation of alpha-lipoic acid derivatives” (Bioorg Med Chem Lett, 2010)
